Reference: ChEMBL document CHEMBL4376896, “Synthesis of Novel Potent Archazolids: Pharmacology of an Emerging Class of Anticancer Drugs” (J Med Chem, 2020)
Converted amounts (≈) assume the structure as drawn. The source made the active and inactive calls. No cut-off for these calls is given here.

Assays:
Cytochrome P450 2C9 [1] = molecular target: T1, Cytochrome P450 2C9 (Homo sapiens, UniProt P11712); assay: Inhibition of recombinant human CYP2C9 at 100 nM; assay type: ADME; details: recombinant enzyme, 0.1 µM
T1 sequence (P11712 whole entry): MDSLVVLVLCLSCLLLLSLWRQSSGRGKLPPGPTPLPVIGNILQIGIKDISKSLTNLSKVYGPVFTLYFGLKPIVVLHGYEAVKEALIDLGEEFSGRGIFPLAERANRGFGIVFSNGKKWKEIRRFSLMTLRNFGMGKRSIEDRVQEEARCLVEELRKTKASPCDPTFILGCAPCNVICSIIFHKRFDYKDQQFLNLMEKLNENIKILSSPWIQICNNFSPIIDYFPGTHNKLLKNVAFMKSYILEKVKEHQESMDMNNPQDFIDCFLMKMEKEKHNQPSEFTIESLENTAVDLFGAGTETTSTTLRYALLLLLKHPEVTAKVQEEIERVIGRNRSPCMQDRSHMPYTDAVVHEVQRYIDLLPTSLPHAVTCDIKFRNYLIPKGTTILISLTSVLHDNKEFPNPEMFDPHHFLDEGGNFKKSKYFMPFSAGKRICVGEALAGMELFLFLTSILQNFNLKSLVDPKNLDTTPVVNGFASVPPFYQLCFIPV

[2] = Intrinsic clearance in human liver microsomes at 1 uM; assay type: ADME, Microsome; details: read-out: CLH
[3] = Stability in human liver microsomes assessed as drug degradation at 1 uM measured within 15 mins; assay type: ADME, Microsome; details: read-out: Drug degradation
Cytochrome P450 2C19 [4] = molecular target: T2, Cytochrome P450 2C19 (Homo sapiens, UniProt P33261); assay: Inhibition of recombinant human CYP2C19 at 100 nM; assay type: ADME; details: recombinant enzyme, 0.1 µM
T2 sequence (P33261 whole entry): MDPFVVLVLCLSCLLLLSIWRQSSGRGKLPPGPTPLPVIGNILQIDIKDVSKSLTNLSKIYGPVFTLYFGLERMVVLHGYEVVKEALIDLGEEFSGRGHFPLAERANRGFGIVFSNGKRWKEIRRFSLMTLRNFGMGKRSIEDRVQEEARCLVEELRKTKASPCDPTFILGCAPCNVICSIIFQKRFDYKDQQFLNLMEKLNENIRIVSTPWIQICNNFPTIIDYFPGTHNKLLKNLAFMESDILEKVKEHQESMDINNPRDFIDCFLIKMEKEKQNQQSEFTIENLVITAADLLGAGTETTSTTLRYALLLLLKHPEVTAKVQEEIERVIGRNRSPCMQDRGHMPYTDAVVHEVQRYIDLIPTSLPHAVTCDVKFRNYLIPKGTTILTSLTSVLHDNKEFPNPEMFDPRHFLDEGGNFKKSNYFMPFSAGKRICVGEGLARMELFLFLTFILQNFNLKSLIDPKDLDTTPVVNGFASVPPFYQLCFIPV

[5] = molecular target: P2X purinoceptor 3 (Homo sapiens) (UniProt P56373); assay: Inhibition of human P2X3 expressed in human 1321N1 cell membranes assessed as reduction in ATP-induced inhibition of [35S]ATPgammaS binding at 1 pm to 10 mM
[6] = Half life in Sprague-Dawley rat liver microsomes at 1 uM; assay type: ADME, Microsome
Cytochrome P450 3A4 [7] = molecular target: T3, Cytochrome P450 3A4 (Homo sapiens, UniProt P08684); assay: Inhibition of recombinant human CYP3A4 at 100 nM; assay type: ADME; details: recombinant enzyme, 0.1 µM
T3 sequence (P08684 whole entry): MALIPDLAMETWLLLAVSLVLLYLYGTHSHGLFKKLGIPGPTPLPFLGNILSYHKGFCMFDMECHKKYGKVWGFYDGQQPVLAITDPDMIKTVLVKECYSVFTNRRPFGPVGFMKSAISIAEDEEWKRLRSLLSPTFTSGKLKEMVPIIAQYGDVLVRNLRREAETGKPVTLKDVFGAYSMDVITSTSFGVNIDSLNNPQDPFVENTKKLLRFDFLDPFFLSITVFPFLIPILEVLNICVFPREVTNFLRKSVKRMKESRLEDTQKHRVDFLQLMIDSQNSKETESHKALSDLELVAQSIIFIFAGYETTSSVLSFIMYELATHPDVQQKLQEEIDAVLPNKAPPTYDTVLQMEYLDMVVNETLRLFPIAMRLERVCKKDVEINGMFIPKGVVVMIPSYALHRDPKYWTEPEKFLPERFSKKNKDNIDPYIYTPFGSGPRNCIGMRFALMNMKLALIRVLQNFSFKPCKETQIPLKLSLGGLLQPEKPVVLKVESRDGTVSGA

[8] = Half life in CD1 mouse liver microsomes at 1 uM; assay type: ADME, Microsome
Cytochrome P450 1A2 = Cytochrome P450 1A2 (Homo sapiens, UniProt P05177); assay: Inhibition of recombinant human CYP1A2 at 100 nM; assay type: ADME; details: recombinant enzyme, 0.1 µM
Sequence of Cytochrome P450 1A2 (P05177 whole entry): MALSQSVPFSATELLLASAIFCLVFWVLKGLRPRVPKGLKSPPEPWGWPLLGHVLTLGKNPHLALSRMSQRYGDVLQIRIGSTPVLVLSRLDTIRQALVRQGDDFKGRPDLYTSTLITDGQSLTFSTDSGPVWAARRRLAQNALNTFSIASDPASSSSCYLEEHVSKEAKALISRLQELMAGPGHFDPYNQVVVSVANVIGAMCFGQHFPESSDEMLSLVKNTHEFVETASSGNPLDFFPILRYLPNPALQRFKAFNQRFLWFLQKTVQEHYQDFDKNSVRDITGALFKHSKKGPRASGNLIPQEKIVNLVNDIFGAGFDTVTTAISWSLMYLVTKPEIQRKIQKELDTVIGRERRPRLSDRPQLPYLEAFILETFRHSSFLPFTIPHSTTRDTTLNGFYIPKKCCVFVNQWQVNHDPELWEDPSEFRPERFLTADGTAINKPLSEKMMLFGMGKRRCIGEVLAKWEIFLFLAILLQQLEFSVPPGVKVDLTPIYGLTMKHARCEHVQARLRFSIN

Cytochrome P450 2C9 [9] = molecular target: T1, Cytochrome P450 2C9; assay: Inhibition of recombinant human CYP2C9 at 1 uM; assay type: ADME; details: recombinant enzyme
[10] = Stability in CD1 mouse liver microsomes assessed as drug degradation at 1 uM measured within 15 mins; assay type: ADME, Microsome; details: read-out: Drug degradation
Neutrophil elastase = molecular target: T4, Neutrophil elastase (Homo sapiens, UniProt P08246); assay: Inhibition of human leukocyte elastase assessed as reduction in pNA release using chromogenic MeO-Suc-Ala-Ala-Pro-Val-pNA substrate measured over 10 mins by spectrophotometry; details: read-out: IC50
T4 sequence (P08246 whole entry): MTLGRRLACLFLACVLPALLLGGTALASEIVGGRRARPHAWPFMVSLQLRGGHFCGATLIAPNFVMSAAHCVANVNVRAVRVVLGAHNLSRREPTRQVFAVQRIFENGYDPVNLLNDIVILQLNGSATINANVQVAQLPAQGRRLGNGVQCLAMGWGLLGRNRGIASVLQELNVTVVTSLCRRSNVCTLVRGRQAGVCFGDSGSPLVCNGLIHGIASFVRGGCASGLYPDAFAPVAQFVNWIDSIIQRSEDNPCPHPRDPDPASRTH

[11] = Permeability in human Caco2 cells at 10 uM; assay type: ADME, cell-based; details: caco-2, 10 µM
[12] = Kinetic aqueous solubility of the compound; assay type: physicochemical; details: buffer; read-out: Kinetic_solubility
[13] = molecular target: Chymotrypsin (Homo sapiens) (UniProt Q99895+P17538+P40313+Q6GPI1); assay: Inhibition of chymotrypsin (unknown origin) assessed as reduction in pNA release using chromogenic Suc-Ala-Ala-Pro-Phe-pNA substrate measured over 12.5 mins by spectrophotometry; assay type: protein assay
[14] = molecular target: Cathepsin B (Homo sapiens) (UniProt P07858); assay: Inhibition of cathepsin B (unknown origin) assessed as reduction in pNA release using chromogenic Z-Arg-Arg-pNA substrate measured over 1 hr by spectrophotometry
[15] = Intrinsic clearance in CD1 mouse liver microsomes at 1 uM; assay type: ADME, Microsome; details: read-out: CLH
Adenosine receptor A3 = molecular target: T5, Adenosine receptor A3 (Homo sapiens, UniProt P0DMS8); assay: Displacement of [3H]PSB-11 from human A3 adenosine receptor expressed in CHO cell membranes incubated for 60 mins by liquid scintillation counting method
T5 sequence (P0DMS8 whole entry): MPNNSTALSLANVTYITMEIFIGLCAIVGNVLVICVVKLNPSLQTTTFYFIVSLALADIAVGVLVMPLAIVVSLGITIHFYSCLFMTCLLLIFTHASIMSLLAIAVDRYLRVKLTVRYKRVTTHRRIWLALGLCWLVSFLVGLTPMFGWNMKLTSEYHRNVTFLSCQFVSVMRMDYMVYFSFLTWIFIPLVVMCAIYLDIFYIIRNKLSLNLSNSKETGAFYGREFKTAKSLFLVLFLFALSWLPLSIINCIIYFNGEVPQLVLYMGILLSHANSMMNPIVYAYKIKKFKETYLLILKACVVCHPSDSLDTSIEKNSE

cells = details: Homo sapiens, 1321-N1, 72 h
Description: Growth inhibition of human 1321N1 cells incubated for 72 hrs by MTT assay

Cytochrome P450 2C19 [16] = molecular target: T2, Cytochrome P450 2C19; assay: Inhibition of recombinant human CYP2C19 at 1 uM; assay type: ADME; details: recombinant enzyme
Cytochrome P450 2B6 = Cytochrome P450 2B6 (Homo sapiens, UniProt P20813); assay: Inhibition of recombinant human CYP2B6 at 100 nM; assay type: ADME; details: recombinant enzyme, 0.1 µM
Sequence of Cytochrome P450 2B6 (P20813 whole entry): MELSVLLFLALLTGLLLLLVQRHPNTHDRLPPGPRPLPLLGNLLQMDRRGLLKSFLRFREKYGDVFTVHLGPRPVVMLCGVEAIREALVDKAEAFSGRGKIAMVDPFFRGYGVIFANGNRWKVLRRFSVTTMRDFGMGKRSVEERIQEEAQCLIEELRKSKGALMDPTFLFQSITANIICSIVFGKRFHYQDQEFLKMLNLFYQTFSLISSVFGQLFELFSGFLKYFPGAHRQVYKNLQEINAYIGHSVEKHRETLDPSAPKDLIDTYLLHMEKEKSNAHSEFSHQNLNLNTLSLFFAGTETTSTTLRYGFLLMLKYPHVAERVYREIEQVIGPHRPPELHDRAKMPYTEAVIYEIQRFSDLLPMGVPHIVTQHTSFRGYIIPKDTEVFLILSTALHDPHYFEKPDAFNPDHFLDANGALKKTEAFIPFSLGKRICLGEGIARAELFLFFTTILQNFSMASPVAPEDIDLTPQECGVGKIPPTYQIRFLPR

P2X purinoceptor 3 = molecular target: T6, P2X purinoceptor 3 (Homo sapiens, UniProt P56373); assay: Inhibition of human P2X3 assessed as reduction in agonist-induced intracellular Ca2+ concentration pre-incubated for 30 mins before agonist addition by calcium 5 dye based fluorescence assay; assay type: cell-based
T6 sequence (P56373 whole entry): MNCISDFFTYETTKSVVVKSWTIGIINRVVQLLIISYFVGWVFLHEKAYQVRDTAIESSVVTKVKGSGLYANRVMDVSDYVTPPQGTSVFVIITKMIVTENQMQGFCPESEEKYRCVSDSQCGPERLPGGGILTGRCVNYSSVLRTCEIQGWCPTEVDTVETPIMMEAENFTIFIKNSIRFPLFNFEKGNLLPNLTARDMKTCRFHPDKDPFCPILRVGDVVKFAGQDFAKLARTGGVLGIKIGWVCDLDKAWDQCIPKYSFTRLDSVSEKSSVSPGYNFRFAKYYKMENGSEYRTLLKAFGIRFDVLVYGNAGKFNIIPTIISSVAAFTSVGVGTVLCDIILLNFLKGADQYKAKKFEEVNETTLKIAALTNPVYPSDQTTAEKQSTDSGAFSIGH

Cytochrome P450 2D6 = Cytochrome P450 2D6 (Homo sapiens, UniProt P10635); assay: Inhibition of recombinant human CYP2D6 at 100 nM; assay type: ADME; details: recombinant enzyme, 0.1 µM
Sequence of Cytochrome P450 2D6 (P10635 whole entry): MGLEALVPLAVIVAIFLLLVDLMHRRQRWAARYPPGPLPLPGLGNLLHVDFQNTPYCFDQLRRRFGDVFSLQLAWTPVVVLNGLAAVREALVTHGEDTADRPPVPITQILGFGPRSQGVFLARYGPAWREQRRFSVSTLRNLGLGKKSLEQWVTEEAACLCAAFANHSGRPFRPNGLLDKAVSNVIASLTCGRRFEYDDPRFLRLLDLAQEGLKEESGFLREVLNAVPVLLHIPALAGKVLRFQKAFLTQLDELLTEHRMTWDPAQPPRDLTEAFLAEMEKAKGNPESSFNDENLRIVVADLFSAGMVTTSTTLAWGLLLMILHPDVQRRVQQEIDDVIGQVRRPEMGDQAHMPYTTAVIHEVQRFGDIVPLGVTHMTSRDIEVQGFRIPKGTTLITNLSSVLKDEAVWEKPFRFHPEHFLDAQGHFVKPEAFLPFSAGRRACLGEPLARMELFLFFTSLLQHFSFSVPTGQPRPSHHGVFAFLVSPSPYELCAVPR

[17] = Half life in human liver microsomes at 1 uM; assay type: ADME, Microsome
Trypsin (Homo sapiens) = Trypsin (Homo sapiens) (UniProt P07477+P07478+P35030); assay: Inhibition of trypsin (unknown origin) assessed as reduction in pNA release using chromogenic Suc-Ala-Ala-Pro-Arg-pNA substrate measured over 10 mins by spectrophotometry; assay type: protein assay
[18] = Intrinsic clearance in Sprague-Dawley rat liver microsomes at 1 uM; assay type: ADME, Microsome; details: read-out: CLH
[19] = Stability in Sprague-Dawley rat liver microsomes assessed as drug degradation at 1 uM measured within 15 mins; assay type: ADME, Microsome; details: read-out: Drug degradation
Cytochrome P450 3A4 [20] = molecular target: T3, Cytochrome P450 3A4; assay: Inhibition of recombinant human CYP3A4 at 1 uM; assay type: ADME; details: recombinant enzyme
[21] = molecular target: Procathepsin L (Homo sapiens) (UniProt P07711); assay: Inhibition of cathepsin L (unknown origin) assessed as reduction in pNA release using chromogenic Z-Phe-Arg-pNA substrate measured over 1 hr by spectrophotometry
Sequence of Procathepsin L (Homo sapiens) (P07711 114-333 limits assumed): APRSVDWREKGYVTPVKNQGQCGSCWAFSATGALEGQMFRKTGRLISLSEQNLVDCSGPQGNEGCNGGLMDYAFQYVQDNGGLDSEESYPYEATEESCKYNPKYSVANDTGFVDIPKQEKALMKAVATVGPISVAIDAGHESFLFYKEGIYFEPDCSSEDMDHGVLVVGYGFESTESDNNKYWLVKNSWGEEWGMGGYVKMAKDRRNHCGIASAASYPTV

CNC(=O)O[C@@H](CC(C)C)c1nc([C@H]2OC(=O)/C=C/C/C(C)=C/[C@@H](O)[C@@H](C)\C=C(C)/C=C(C)\C=C\[C@@H](O)[C@H](C)[C@H](OC)/C(C)=C/C=C/[C@@H]2C)cs1 [ARCHAZOLID B]
inhibition (INH) (Cytochrome P450 2C9 [1]): Active | microsomal CLint at 1 µM [2]: 533 µL/min/mg | metabolised at 0.25 h, 1 µM [3]: 100% | inhibition (INH) (Cytochrome P450 2C19 [4]): Active | inhibition [5]: inactive | half-life at 1 µM [6]: 4.6 min | inhibition (INH) (Cytochrome P450 3A4 [7]): Active | half-life at 1 µM [8]: 2.8 min | inhibition (INH) (Cytochrome P450 1A2): Active | inhibition (INH) (Cytochrome P450 2C9 [9]): Active | metabolised at 0.25 h, 1 µM [10]: 100% | IC50 (Neutrophil elastase): 316 nM | permeability [11]: Impermeable | solubility kinetic [12]: 1.6 µM (≈ 1.16 µg/mL) | inhibition [13]: inactive | inhibition [14]: inactive | microsomal CLint at 1 µM [15]: 495 µL/min/mg | Ki (Adenosine receptor A3): 1180 nM | IC50 (cells): 0.145 nM | inhibition (INH) (Cytochrome P450 2C19 [16]): Active | inhibition (INH) (Cytochrome P450 2B6): Active | IC50 (P2X purinoceptor 3): 353 nM | inhibition (INH) (Cytochrome P450 2D6): Active | half-life at 1 µM [17]: 2.6 min | inhibition (Trypsin (Homo sapiens)): inactive | microsomal CLint at 1 µM [18]: 301 µL/min/mg | metabolised at 0.25 h, 1 µM [19]: 100% | inhibition (INH) (Cytochrome P450 3A4 [20]): Active | inhibition [21]: inactive
